Measurements taken from publication PMC8001783, “New Lignanamides with Antioxidant and Anti-Inflammatory Activities Screened Out and Identified from Warburgia ugandensis Combining Affinity Ultrafiltration LC-MS with SOD and XOD Enzymes” (Antioxidants, 2021).
Marks after values point to notes of the source that are not given here.

How the values were obtained:
COX-2 (human) = target: T1, COX-2 (human) (Homo sapiens, UniProt P35354); assay: In vitro COX-2 inhibitory assay (COX-2 (human) inhibitor screening kit); format: biochemical; settings: for COX-2 inhibitory activity compared with the positive control indomethacin: in words, Figure 7; for IC50: fluorescence, ex 560 nm / em 590 nm, triplicate
T1 construct: purchased Beyotime Biotechnology (Shanghai, China) S0168
T1 sequence (P35354 18-604): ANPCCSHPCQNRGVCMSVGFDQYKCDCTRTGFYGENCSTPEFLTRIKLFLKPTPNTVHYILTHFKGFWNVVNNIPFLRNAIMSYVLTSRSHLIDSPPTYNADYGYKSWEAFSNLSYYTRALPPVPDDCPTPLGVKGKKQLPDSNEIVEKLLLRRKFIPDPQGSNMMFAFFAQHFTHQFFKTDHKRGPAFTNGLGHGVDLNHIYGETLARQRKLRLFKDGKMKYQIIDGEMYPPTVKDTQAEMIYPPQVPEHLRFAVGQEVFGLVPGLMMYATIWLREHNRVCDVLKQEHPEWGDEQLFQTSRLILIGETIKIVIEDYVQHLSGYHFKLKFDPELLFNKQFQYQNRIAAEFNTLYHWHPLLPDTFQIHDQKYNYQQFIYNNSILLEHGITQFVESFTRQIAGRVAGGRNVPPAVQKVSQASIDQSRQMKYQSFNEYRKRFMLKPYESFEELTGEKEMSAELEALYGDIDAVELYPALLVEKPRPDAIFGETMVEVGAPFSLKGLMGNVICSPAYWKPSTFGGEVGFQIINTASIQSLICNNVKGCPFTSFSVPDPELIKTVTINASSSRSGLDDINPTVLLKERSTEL
Experimental: Firstly, samples were dissolved in DMSO, and prepared into a series of solutions with different concentrations. COX-2 cofactor working solution, COX-2 working solution, COX-2 probe, and COX-2 substrate were prepared according to manufacturer’s instructions, and then diluted 10 times with COX-2 assay buffer, respectively. Secondly, 150 µL Tris-HCl (pH = 7.8), 10 µL COX-2 cofactor working solution, 10 µL COX-2 working solution, and 10 µL sample solution were sequentially added in the 96-well black plates, mixed and incubated at 37 °C for 10 min. The COX-2 working solution of the blank control group was replaced with an equal volume of COX-2 assay buffer, and the sample was replaced with an equal volume of DMSO; the sample of the 100% enzyme activity control group was replaced with an equal volume of DMSO. Thirdly, 10 µL COX-2 probe was added into each well. Finally, 10 µL of COX-2 substrate was quickly added into each well, and incubated at 37 °C in the darkness for 5 min, and followed by the fluorescence measurement. The excitation and emission wavelengths were 560 nm and 590 nm, respectively. […] The experiments were performed in triplicate. The COX-2 inhibitory activity was expressed as IC50. The inhibition of COX-2 was calculated according to the following formula:COX-2 inhibitory activity (%) = (RFU100%Enzyme − RFUSample)/ (RFU100%Enzyme − RFUBlank) × 100,(3) where COX-2 inhibitory activity (%) was plotted against the concentration of samples to acquire the IC50. RFU100%Enzyme, relative fluorescence unit of 100% enzyme control group; RFUSample, relative fluorescence unit of sample; RFUBlank, relative fluorescence unit of blank group.

xanthine oxidase (XOD) = assay: Affinity ultrafiltration LC-MS/MS with XOD (relative binding affinity); set-up: key: -: No binding affinity; settings: peaks of WUE-A4, XOD 2 U, 37 °C 1 h, n = 3
Experimental: The experimental conditions were proposed according to previous relevant studies. Briefly, the optimized experiment was composed of three steps. Incubation was the first step, where 100 μL WUE-A4 (10.0 mg/mL), 10 µL SOD (2 U) or XOD (2 U), and 90 µL Tris-HCl (pH = 7.8) were mixed well in 1.5 mL EP tubes, and then incubated at 37 °C in the dark for 1 h. Meanwhile, the incubation operations of inactivated enzymes (inactivated enzymes were obtained by heating enzymes in a 99 °C water bath for 10 min) were the same as the active enzymes. Adsorption was the second step, where the incubated solutions were transferred to ultrafiltration tubes with 30 KDa (for SOD) or 10 KDa (for XOD) ultrafiltration membranes and then centrifuged at 10,000 rpm for 10 min at 25 °C. Simultaneously, components which had no binding affinity to enzymes were washed out. Immediately, 300 µL of Tris-HCl solution (pH = 7.8) was added to the ultrafiltration tubes and centrifuged at 10,000 rpm for 5 min at 25 °C to remove the potential unbound components. Desorption was the third step, where 300 µL of 90% (v/v) MeOH-H2O was added and incubated for 10 min at room temperature, and the mixed solutions were centrifuged at 10,000 rpm for another 10 min at 25 °C. After that, the desorption process was repeated two times to release those components with specific bindings to SOD or XOD from the enzyme-ligand complexes. Finally, those ultrafiltrates were dried and reconstituted in 50 µL MeOH for the HPLC-UV/ESI-MS/MS analysis.
HPLC-UV/ESI-MS/MS was carried out to characterize the components in WUE-A4 before and after ultrafiltration by using a Thermo Accela 600 series HPLC connected with a TSQ Quantum Access MAX mass spectrometer (Thermo Fisher Scientific, San Jose, CA, USA). A Waters Symmetry RP-C18 column (4.6 × 250 mm, 5 µm) was used to perform chromatographic analysis at 30 °C, and the mobile phase consisted of H2O with 0.1% formic acid (A) and ACN (B). The optimized HPLC elution procedures were as follows: 0–15 min, 17% B; 15–40 min, 17–30% B, 40–42 min: 30–56% B. The flow rate was 0.8 mL/min, the injection volume was 10 µL, and the HPLC-UV chromatograms were detected at a wavelength of 254 nm. The negative ion modes were applied to obtained ESI-MS/MS data. Moreover, the parameters of instrument were set as follows: the vaporizer temperature was 350 °C, the capillary temperature was 250 °C, the spray voltage was 3000 V, the cone voltage energy was 40 V, the collision energy was 10 V, the sheath gas pressure was 40 psi, the aux gas pressure was 10 psi, the drying gas flow rate was 6.0 L/min, and the mass range was set from 50 to 1100 (m/z) in the full-scan mode. Finally, the Thermo Xcalibur ChemStation (Thermo Fisher Scientific) was used for data acquisition and analysis.
For further evaluation of the affinity binding strength between the potential ligands and the target enzymes, the relative binding affinity (RBA) was employed to compare the variation of the correlated peak areas in the UF-HPLC-UV chromatograms before and after activation. The RBA formula is expressed as RBA = Aactive/Ainactivated, where the Aactive and Ainactivated represent the peak areas obtained from the WUE-A4 samples with activated and inactivated SOD or XOD, respectively.

[1] = tested on: LPS-induced NO production in RAW 264.7 macrophages; set-up: method as in doi:10.5012/bkcs.2013.34.10.3105, PMID 29177586, PMID 31888376; settings: cited from earlier work

Compound | COX-2 inhibitory activity compared with the positive control indomethacin (COX-2 (human)) | UF-RBA XOD (relative binding affinity = Aactive/Ainactivated) (xanthine oxidase (XOD)) | UF-RBA XOD (relative binding affinity = Aactive/Ainactivated) (xanthine oxidase (XOD); listed as peak 11) | inhibitory effect against LPS-induced NO production [1] | IC50 (COX-2 (human)) | UF-RBA XOD (relative binding affinity = Aactive/Ainactivated) (xanthine oxidase (XOD); listed as peak 14)
1-(3,4-dihydroxy-5-methoxyphenyl)-1,2-dihydroxy-7,8-dihydroxy-N-[(3,4-dihydroxyphenyl)-ethyl]-N′-[(4-hydroxyphenyl)-ethyl]-6-methoxynaphthalene-2,3-dicarboxamide [compound 11] | almost the same inhibitory activities | - | extremely low or no binding affinities |  |  | 
C[C@@H]1O[C@@H](O[C@@H]2[C@@H](O)[C@H](O)[C@@H](CO)O[C@H]2c2cc(-c3cc(=O)c4c(O)cc(O)cc4o3)cc(O)c2O)[C@H](O)[C@H](O)[C@H]1O [compound 1, 2-[3-[2-O-(6-deoxy-α-L-mannopyranosyl)-β-D-glucopyranosyl]-4,5-dihydroxyphenyl]-5,7-dihydroxy-4H-1-benzopyran-4-one] | almost the same inhibitory activities | 1.2 ± 0.6 ^c,d |  |  |  | 
O=C(/C=C/c1ccc(O)c(O)c1)NCCc1ccc(O)cc1 [compound 7, N-trans-caffeoyltyramine] | almost the same inhibitory activities | 1.1 ± 0.3 ^c,d |  | good inhibitory effects |  | 
COc1cc(C2c3c(cc(OC)c(O)c3O)C=C(C(=O)NCCc3ccc(O)cc3)C2C(=O)NCCc2ccc(O)cc2)cc(O)c1O (stereo not shown) [compound 13] |  | 1.3 ± 0.2 ^c,d |  |  | 713 ± 322 nM | 
COc1cc(C2c3c(cc(O)c(O)c3OC)C=C(C(=O)NCCc3ccc(O)cc3)C2C(=O)NCCc2ccc(O)cc2)cc(O)c1O (stereo not shown) [compound 14] |  | 3.8 ± 0.5 ^a |  |  | 123 ± 4 nM | 3.76
